# Key:
# Type in all cases: in vivo
# [1] = system: Echinochloa oryzacola Vasing.; assay: Test Example 1: herbicidal activity, application before weed generation in submerged conditions (symbol A); settings: application herbicide amount 320 g/ha
# Summary of the method: (§1)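 Steps: alluvial soil flooded to 4 cm; weed seeds sown together; rice seedlings (2.5 leaf) transplanted; diluted emulsion applied to water surface the same day as sowing; plants grown at 25–30 °C in greenhouse; herbicidal effect rated on a 0–5 scale at 3 weeks.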
# [2] = system: Scirpus juncoides; assay: Test Example 1: herbicidal activity, application before weed generation in submerged conditions (symbol B); settings: application herbicide amount 320 g/ha
# Summary of the method: as §1
# [3] = system: Monochoria vaginalis; assay: Test Example 2: herbicidal activity, application during weed generation in submerged conditions (symbol C); settings: Table 23; application herbicide amount 320 g/ha; grade 0-5 by criteria of Test Example 1
# Summary of the method: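 Treatment timing was the one- to two-leaf stage, with diluted emulsifiable compound dropped onto the paddy water (depth 4 cm) over alluvial soil. All three species grew from a mixed sowing in a 25° C. to 30° C. greenhouse. Injury was judged by eye 3 weeks on.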
# [4] = system: Leptochloa chinensis; assay: Test Example 3: herbicidal effect by foliage application, Wagner pot (symbol D); settings: application herbicide amount 320 g/ha
# Summary of the method: (§2)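 The compound, formulated as an emulsion and diluted with water to a predetermined rate, is applied uniformly to leaves of two-week-old seedlings growing in submerged alluvial soil at 25–30 °C. Rice is included. Each plant is assessed 3 weeks later using defined criteria.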
# [5] = system: Cyperus difformis; assay: Test Example 3: herbicidal effect by foliage application, Wagner pot (symbol E); settings: application herbicide amount 320 g/ha
# Summary of the method: as §2
# [6] = system: Digitaria ciliaris; assay: Test Example 4: herbicidal effect by soil treatment (symbol F); settings: application herbicide amount 320 g/ha
# Summary of the method: (§3)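 Seeds were sown in sterilized diluvial soil, covered with about 1.5 cm of soil, and the soil surface was sprayed with a water-diluted emulsion of the compound at a predetermined rate. Plants grew in a greenhouse at 25° C. to 30° C.; effects were scored visually 3 weeks after application.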
# [7] = system: Setaria viridis; assay: Test Example 4: herbicidal effect by soil treatment (symbol G); settings: application herbicide amount 320 g/ha
# Summary of the method: as §3
# [8] = system: Echinochloa crus-galli var. crus-galli; assay: Test Example 4: herbicidal effect by soil treatment (symbol H); settings: application herbicide amount 320 g/ha
# Summary of the method: as §3
# [9] = system: Digitaria ciliaris; assay: Test Example 5: herbicidal effect by foliage application, plastic box (symbol F); settings: 320 g/ha, 3 weeks after application
# Summary of the method: (§4)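 Greenhouse foliar test: seedlings at 14 days, grown 25° C. to 30° C. in sterilized diluvial soil; compound applied as an aqueous dilution of an emulsion; response read 3 weeks after spraying.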
# [10] = system: Setaria viridis; assay: Test Example 5: herbicidal effect by foliage application, plastic box (symbol G); settings: 320 g/ha, 3 weeks after application
# Summary of the method: as §4
# [11] = system: Avena fatua; assay: Test Example 5: herbicidal effect by foliage application, plastic box (symbol I); settings: 320 g/ha, 3 weeks after application
# Summary of the method: as §4
# [12] = system: Stellaria media; assay: Test Example 5: herbicidal effect by foliage application, plastic box (symbol P); settings: 320 g/ha, 3 weeks after application
# Summary of the method: as §4
# [13] = system: beet; assay: Test Example 4: effect on crop by soil treatment (symbol f); settings: application herbicide amount 320 g/ha
# Summary of the method: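 Crop seed is sown in spots together with several weed species in a box of sterilized diluvial soil. It is covered by about 1.5 cm of soil and kept in a greenhouse held between 25° C. and 30° C.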
Structure (SMILES),"Herbicidal effect grade, A: Echinochloa oryzacola Vasing. [1]","Herbicidal effect grade, B: Scirpus juncoides [2]","Herbicidal effect grade, C: Monochoria vaginalis [3]","herbicidal effect on D (Leptochloa chinensis), grade 0-5 [4]","herbicidal effect on E, grade 0-5 [5]",F (Digitaria ciliaris) herbicidal effect grade [6],G (Setaria viridis) herbicidal effect grade [7],H (Echinochloa crus-galli var. crus-galli) herbicidal effect grade [8],"F: Digitaria ciliaris, herbicidal effect grade [9]","G: Setaria viridis, herbicidal effect grade [10]","I: Avena fatua, herbicidal effect grade [11]","P: Stellaria media, herbicidal effect grade [12]",f (beet) effect on crop grade [13],"Herbicidal effect grade, F: Digitaria ciliaris [6]","Herbicidal effect grade, G: Setaria viridis [7]","Herbicidal effect grade, H: Echinochloa crus-galli var. crus-galli [8]","Effect on crop grade, f: beet [13]","F: Digitaria ciliaris, herbicidal effect (criteria of Test Example 1) [9]","G: Setaria viridis, herbicidal effect (criteria of Test Example 1) [10]","I: Avena fatua, herbicidal effect (criteria of Test Example 1) [11]"
CON=C(C)CC1CC(OC(=O)C2CC2)=C(c2c(C)cc(C)cc2C)C1=O (stereo not shown) [1-015],5 (Herbicidal ratio of 90% or more (almost completely withered)),5 (Herbicidal ratio of 90% or more (almost completely withered)),4 (Herbicidal ratio of 70% or higher and lower than 90%),5 (Herbicidal ratio of 90% or more (almost completely withered)),5 (Herbicidal ratio of 90% or more (almost completely withered)),5 (Herbicidal ratio of 90% or more (almost completely withered)),3 (Herbicidal ratio of 40% or higher and lower than 70%),5 (Herbicidal ratio of 90% or more (almost completely withered)),5 (Herbicidal ratio of 90% or more (almost completely withered)),5 (Herbicidal ratio of 90% or more (almost completely withered)),5 (Herbicidal ratio of 90% or more (almost completely withered)),4 (Herbicidal ratio of 70% or higher and lower than 90%),–,–,–,–,–,–,–,–
CON=C(C)CC1CC(OC(=O)C(C)(C)CCl)=C(c2c(C)cc(C)cc2C)C1=O (stereo not shown) [1-016],5 (Herbicidal ratio of 90% or more (almost completely withered)),5 (Herbicidal ratio of 90% or more (almost completely withered)),3 (Herbicidal ratio of 40% or higher and lower than 70%),5 (Herbicidal ratio of 90% or more (almost completely withered)),5 (Herbicidal ratio of 90% or more (almost completely withered)),5 (Herbicidal ratio of 90% or more (almost completely withered)),3 (Herbicidal ratio of 40% or higher and lower than 70%),5 (Herbicidal ratio of 90% or more (almost completely withered)),5 (Herbicidal ratio of 90% or more (almost completely withered)),5 (Herbicidal ratio of 90% or more (almost completely withered)),5 (Herbicidal ratio of 90% or more (almost completely withered)),–,0 (Herbicidal ratio of 5% or lower (almost no effect)),–,–,–,–,–,–,–
CON=C(C)CC1CC(OC(=O)C(C)(C)Oc2ccccc2)=C(c2c(C)cc(C)cc2C)C1=O (stereo not shown) [1-017],5 (Herbicidal ratio of 90% or more (almost completely withered)),5 (Herbicidal ratio of 90% or more (almost completely withered)),3 (Herbicidal ratio of 40% or higher and lower than 70%),5 (Herbicidal ratio of 90% or more (almost completely withered)),5 (Herbicidal ratio of 90% or more (almost completely withered)),5 (Herbicidal ratio of 90% or more (almost completely withered)),5 (Herbicidal ratio of 90% or more (almost completely withered)),5 (Herbicidal ratio of 90% or more (almost completely withered)),5 (Herbicidal ratio of 90% or more (almost completely withered)),5 (Herbicidal ratio of 90% or more (almost completely withered)),5 (Herbicidal ratio of 90% or more (almost completely withered)),–,0 (Herbicidal ratio of 5% or lower (almost no effect)),–,–,–,–,–,–,–
C=CCON=C(C)CC1CC(O)=C(c2c(C)cc(C)cc2C)C1=O (stereo not shown) [1-018],5 (Herbicidal ratio of 90% or more (almost completely withered)),5 (Herbicidal ratio of 90% or more (almost completely withered)),3 (Herbicidal ratio of 40% or higher and lower than 70%),5 (Herbicidal ratio of 90% or more (almost completely withered)),3 (Herbicidal ratio of 40% or higher and lower than 70%),5 (Herbicidal ratio of 90% or more (almost completely withered)),3 (Herbicidal ratio of 40% or higher and lower than 70%),5 (Herbicidal ratio of 90% or more (almost completely withered)),5 (Herbicidal ratio of 90% or more (almost completely withered)),5 (Herbicidal ratio of 90% or more (almost completely withered)),5 (Herbicidal ratio of 90% or more (almost completely withered)),4 (Herbicidal ratio of 70% or higher and lower than 90%),0 (Herbicidal ratio of 5% or lower (almost no effect)),–,–,–,–,–,–,–
CC(CC1CC(O)=C(c2c(C)cc(C)cc2C)C1=O)=NOCc1ccccc1 (stereo not shown) [1-020],5 (Herbicidal ratio of 90% or more (almost completely withered)),5 (Herbicidal ratio of 90% or more (almost completely withered)),2 (Herbicidal ratio of 20% or higher and lower than 40%),5 (Herbicidal ratio of 90% or more (almost completely withered)),2 (Herbicidal ratio of 20% or higher and lower than 40%),5 (Herbicidal ratio of 90% or more (almost completely withered)),5 (Herbicidal ratio of 90% or more (almost completely withered)),5 (Herbicidal ratio of 90% or more (almost completely withered)),5 (Herbicidal ratio of 90% or more (almost completely withered)),5 (Herbicidal ratio of 90% or more (almost completely withered)),4 (Herbicidal ratio of 70% or higher and lower than 90%),–,0 (Herbicidal ratio of 5% or lower (almost no effect)),–,–,–,–,–,–,–
CON=C(C)C(C(C)=NOC)C1CC(O)=C(c2c(C)cc(C)cc2C)C1=O (stereo not shown) [1-021],0 (Herbicidal ratio of 5% or lower (almost no effect)),0 (Herbicidal ratio of 5% or lower (almost no effect)),0 (Herbicidal ratio of 5% or lower (almost no effect)),0 (Herbicidal ratio of 5% or lower (almost no effect)),0 (Herbicidal ratio of 5% or lower (almost no effect)),0 (Herbicidal ratio of 5% or lower (almost no effect)),0 (Herbicidal ratio of 5% or lower (almost no effect)),0 (Herbicidal ratio of 5% or lower (almost no effect)),1 (Herbicidal ratio of 5% or higher and lower than 20%),1 (Herbicidal ratio of 5% or higher and lower than 20%),0 (Herbicidal ratio of 5% or lower (almost no effect)),–,0 (Herbicidal ratio of 5% or lower (almost no effect)),–,–,–,–,–,–,–
CCc1cc(Br)cc(C)c1C1=C(O)CC(C(C(C)=O)C(=O)OC)C1=O (stereo not shown) [7-001],0 (Herbicidal ratio of 5% or lower (almost no effect)),0 (Herbicidal ratio of 5% or lower (almost no effect)),0 (Herbicidal ratio of 5% or lower (almost no effect)),5 (Herbicidal ratio of 90% or more (almost completely withered)),0 (Herbicidal ratio of 5% or lower (almost no effect)),–,–,–,–,–,–,–,–,5 (Herbicidal ratio of 90% or more (almost completely withered)),4 (Herbicidal ratio of 70% or higher and lower than 90%),4 (Herbicidal ratio of 70% or higher and lower than 90%),0 (Herbicidal ratio of 5% or lower (almost no effect)),5 (Herbicidal ratio of 90% or more (almost completely withered)),3 (Herbicidal ratio of 40% or higher and lower than 70%),3 (Herbicidal ratio of 40% or higher and lower than 70%)

# From patent publication US11000033B2, “Ketone or oxime compound, and herbicide” (NISSAN CHEMICAL CORPORATION, priority 2014, dated 2021)
